Blank lines part the entries; values can stand above or below the compound they belong to.
Tests used:
Cyclooxygenase-2 (COX-2) = biological target: T1, Cyclooxygenase-2 (COX-2) (Homo sapiens, UniProt P35354); assay: COX Inhibitor Screening Assay Kit (Cayman), PGF2α by ELISA, COX-2; assay type: biochemical; conditions: compound at 50 μm; relative to PGF2α produced without compound (100%)
T1 construct: purchased Cayman Chemical Company 560121
T1 sequence (P35354 18-604): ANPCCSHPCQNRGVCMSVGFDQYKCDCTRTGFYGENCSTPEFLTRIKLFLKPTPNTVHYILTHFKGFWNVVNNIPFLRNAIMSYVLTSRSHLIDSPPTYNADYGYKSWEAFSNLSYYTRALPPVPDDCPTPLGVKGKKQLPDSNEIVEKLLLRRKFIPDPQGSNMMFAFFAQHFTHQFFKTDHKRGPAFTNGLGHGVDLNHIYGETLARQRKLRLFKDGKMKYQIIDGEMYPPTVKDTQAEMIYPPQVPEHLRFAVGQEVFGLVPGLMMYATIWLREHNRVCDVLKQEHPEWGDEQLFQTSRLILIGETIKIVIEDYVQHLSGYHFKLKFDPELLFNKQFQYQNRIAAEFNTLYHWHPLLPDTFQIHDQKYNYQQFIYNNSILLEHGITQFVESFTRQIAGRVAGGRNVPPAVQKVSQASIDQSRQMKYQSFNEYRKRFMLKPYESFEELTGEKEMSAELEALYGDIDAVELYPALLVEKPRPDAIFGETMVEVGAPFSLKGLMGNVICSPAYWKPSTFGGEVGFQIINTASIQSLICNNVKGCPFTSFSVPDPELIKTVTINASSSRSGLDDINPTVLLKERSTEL
Experimental: (§1) Inhibitory activity against COX-1 and COX-2 of the compounds produced in the Examples was measured by using COX Inhibitor Screening Assay Kit (Catalog Nos. 560101 and 560121) purchased from Cayman Chemical Company.
(§2) Before starting the measurement, reaction buffer, heme, arachidonic acid, SnCl2, EIA buffer, washing buffer, prostaglandin (PG) screening EIA standard, PG screening acetylcholine esterase (AchE), tracer (chromogenic enzyme HRP conjugate), and PC screening EIA antiserum were prepared ready for use.
(§3) The reaction mixture containing the compound of the Examples (50 μM) and COX-1 or COX-2 was allowed to stand at 37° C. or 10 minutes, and after adding 10 μl of arachidonic acid, the solution was again allowed to stand at 37° C. for 2 minutes. After the reaction, the reaction was terminated by adding 50 μl of 1N-hydrochloric acid, and 100 μl solution of SnCl2 was added, and the reaction mixture was allowed to stand at room temperature for 5 minutes.
(§4) 50 μl of antiserum (rabbit anti-PGF2α antibody) was placed in the wells of 96 well plate that had been coated with mouse anti-rabbit IgG and 50 μl of the 2000-fold diluted PGF2α-containing liquid described above and 50 μl of AchE tracer were added to the well in this order, and the mixture was allowed to stand at room temperature for 18 hours. The wells were washed 5 times with the washing buffer to remove an excessive AchE tracer, and 200 μl of Ellman reagent was added. After leaving the plate in a dark room for 60 minutes, absorbance was measured at 405 nm.
(§5) A calibration curve was obtained by using the PG screening EIA standard, and the amount of PGF2α produced was determined from the absorption. Inhibitory rate at 50 μM of the compound of the Examples against COX-1 or COX-2 was calculated.
(§6) It is to be noted that the inhibitory rate was calculated in relation to the amount of the PGF2α produced by the reaction liquid free from the compounds of the Examples, which was taken 100%.

Cyclooxygenase-1 (COX-1) = biological target: T2, Cyclooxygenase-1 (COX-1) (Ovis aries, UniProt P05979); assay: COX Inhibitor Screening Assay Kit (Cayman), PGF2α by ELISA, COX-1; assay type: biochemical; conditions: compound at 50 μm; relative to PGF2α produced without compound (100%)
T2 construct: purchased Cayman Chemical Company 560101
T2 sequence (P05979 25-600): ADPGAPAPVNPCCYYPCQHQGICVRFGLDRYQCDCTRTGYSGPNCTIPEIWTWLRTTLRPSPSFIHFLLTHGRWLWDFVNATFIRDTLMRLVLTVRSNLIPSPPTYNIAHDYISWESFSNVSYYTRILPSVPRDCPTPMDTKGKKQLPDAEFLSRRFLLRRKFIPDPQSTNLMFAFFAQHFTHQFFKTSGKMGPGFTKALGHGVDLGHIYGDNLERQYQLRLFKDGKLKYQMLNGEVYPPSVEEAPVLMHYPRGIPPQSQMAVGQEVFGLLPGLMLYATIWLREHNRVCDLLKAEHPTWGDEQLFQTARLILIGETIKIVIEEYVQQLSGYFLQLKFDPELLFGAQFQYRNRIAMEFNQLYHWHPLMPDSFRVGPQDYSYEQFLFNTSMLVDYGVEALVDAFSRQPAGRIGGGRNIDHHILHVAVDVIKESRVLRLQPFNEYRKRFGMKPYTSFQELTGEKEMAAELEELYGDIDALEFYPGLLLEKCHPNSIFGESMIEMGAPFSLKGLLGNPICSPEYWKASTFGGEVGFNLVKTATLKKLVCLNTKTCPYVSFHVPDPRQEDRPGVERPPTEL
Experimental: as §1, §2, §3, §4, §5, §6

[1] = system: collagen-induced platelet coagulation; assay: Inhibitory effect on collagen-induced platelet coagulation in platelet rich plasma; assay type: cell-based; conditions: human platelet rich plasma, 37° C., coagulation induced with collagen; read-out: Inhibition of collagen-induced platelet coagulation, IC50
Experimental: Human blood was collected by using 1/10 volume of 3.13% sodium citrate as an anticoagulant, and the blood was centrifuged at 180 g for 10 minutes to separate platelet rich plasma (PRP), which was the upper layer. After collecting the upper layer PRP, the remaining lower layer was centrifuged at 1600 g for 10 minutes, and platelet poor plasma (PPP) in the upper layer was collected. 1 μl solution of the compound of the Examples was added to 200 μl of the PRP, and after allowing the sample to stand at 37° C. for 2 minutes, 2 μl of collagen was added in order to induce platelet coagulation. Platelet coagulation rate was measured with PAM-12C (SSR Engineering).

Structure (SMILES): COc1ccc(-n2nc(C(=O)NC(C)(C)C)cc2-c2cc(CO)ccn2)cn1 [Example 4, N-tert-Butyl-5-(4-hydroxymethyl-2-pyridyl)-1-(6-methoxy-3-pyridyl)-1H-pyrazole-3-carboxamide]
- Inhibitory effect against COX-2 at 50 μm (% inhibition) (Cyclooxygenase-2 (COX-2)): −1.9 % inhibition
- Inhibitory effect against COX-1 at 50 μm (% inhibition) (Cyclooxygenase-1 (COX-1)): −1.5 % inhibition
- IC50 [1]: 120 nM

Structure (SMILES): COc1cnc(-n2nc(C(=O)NC(C)(C)C)cc2-c2ccccn2)cn1 [Example 15, N-tert-Butyl-1-(5-methoxy-2-pyrazinyl)-5-(2-pyridyl)-1H-pyrazole-3-carboxamide]
- Inhibitory effect against COX-2 at 50 μm (% inhibition) (Cyclooxygenase-2 (COX-2)): 6.9 % inhibition
- Inhibitory effect against COX-1 at 50 μm (% inhibition) (Cyclooxygenase-1 (COX-1)): 39.5 % inhibition
- IC50 [1]: 29 nM

Structure (SMILES): CC(C)(CF)NC(=O)c1cc(-c2cnc(N)cn2)n(-c2cccnc2)n1 [Example 113, N-(2-Fluoro-1,1-dimethylethyl)-5-(5-amino-2-pyrazinyl)-1-(3-pyridyl)-1H-pyrazole-3-carboxamide]
- Inhibitory effect against COX-1 at 50 μm (% inhibition) (Cyclooxygenase-1 (COX-1)): −2.8 % inhibition
- IC50 [1]: 150 nM

Structure (SMILES): CC(C)(C)NC(=O)c1cc(-c2ccc(CNS(C)(=O)=O)cn2)n(-c2cccnc2)n1 [Example 137, N-tert-Butyl-5-[5-(methanesulfonylamino)methyl-2-pyridyl]-1-(3-pyridyl)-1H-pyrazole-3-carboxamide]
- Inhibitory effect against COX-1 at 50 μm (% inhibition) (Cyclooxygenase-1 (COX-1)): −5.1 % inhibition
- IC50 [1]: 230 nM

Structure (SMILES): CC(C)(C)NC(=O)c1cc(-c2ccc(CN)cn2)n(-c2ccccc2)n1 [Example 74, N-tert-Butyl-5-(5-aminomethyl-2-pyridyl)-1-phenyl-1H-pyrazole-3-carboxamide]
- Inhibitory effect against COX-1 at 50 μm (% inhibition) (Cyclooxygenase-1 (COX-1)): 38.8 % inhibition
- IC50 [1]: 170 nM

Structure (SMILES): Cc1ccc(-n2nc(C(=O)NC(C)(C)C)cc2-c2ccccn2)cn1 [Example 8, N-tert-Butyl-1-(6-methyl-3-pyridyl)-5-(2-pyridyl)-1H-pyrazole-3-carboxamide]
- Inhibitory effect against COX-2 at 50 μm (% inhibition) (Cyclooxygenase-2 (COX-2)): 3.9 % inhibition
- Inhibitory effect against COX-1 at 50 μm (% inhibition) (Cyclooxygenase-1 (COX-1)): −3.3 % inhibition
- IC50 [1]: 18 nM

Structure (SMILES): COc1ccc(-c2cc(C(=O)NC(C)(C)C)nn2-c2cccnc2)nc1 [Example 25, N-tert-Butyl-5-(5-methoxy-2-pyridyl)-1-(3-pyridyl)-1H-pyrazole-3-carboxamide]
- Inhibitory effect against COX-2 at 50 μm (% inhibition) (Cyclooxygenase-2 (COX-2)): 8.2 % inhibition
- Inhibitory effect against COX-1 at 50 μm (% inhibition) (Cyclooxygenase-1 (COX-1)): 4.7 % inhibition
- IC50 [1]: 18 nM

Structure (SMILES): COc1ccc(-n2nc(C(=O)NC3(C(N)=O)CCCC3)cc2-c2ccccn2)cn1 [Example 48, N-(1-Carbamoyl-1-cyclopentyl)-1-(6-methoxy-3-pyridyl)-5-(2-pyridyl)-1H-pyrazole-3-carboxamide]
- Inhibitory effect against COX-2 at 50 μm (% inhibition) (Cyclooxygenase-2 (COX-2)): 8.7 % inhibition
- Inhibitory effect against COX-1 at 50 μm (% inhibition) (Cyclooxygenase-1 (COX-1)): 3.6 % inhibition
- IC50 [1]: 190 nM

Structure (SMILES): COc1ccc(-n2nc(C(=O)NCC3CCCO3)cc2-c2ccccn2)cn1 (stereo not shown) [Example 44, N-(Tetrahydro-2-furanylmethyl)-1-(6-methoxy-3-pyridyl)-5-(2-pyridyl)-1H-pyrazole-3-carboxamide]
- Inhibitory effect against COX-2 at 50 μm (% inhibition) (Cyclooxygenase-2 (COX-2)): 3.6 % inhibition
- Inhibitory effect against COX-1 at 50 μm (% inhibition) (Cyclooxygenase-1 (COX-1)): 4.3 % inhibition
- IC50 [1]: 140 nM

Structure (SMILES): COC(=O)NCc1ccc(-c2cc(C(=O)NC(C)(C)C)nn2-c2cccnc2)nc1 [Example 139, Methyl {6-[5-(N-tert-butylcarbamoyl)-2-(3-pyridyl)-2H-pyrazol-3-yl]-3-pyridylmethyl}carbamate]
- Inhibitory effect against COX-1 at 50 μm (% inhibition) (Cyclooxygenase-1 (COX-1)): −25.8 % inhibition
- IC50 [1]: 71 nM

Structure (SMILES): CC(C)(C)NC(=O)c1cc(-c2cnc(N)cn2)n(-c2cccnc2)n1 [Example 95, N-tert-Butyl-5-(5-amino-2-pyrazinyl)-1-(3-pyridyl)-1H-pyrazole-3-carboxamide]
- Inhibitory effect against COX-1 at 50 μm (% inhibition) (Cyclooxygenase-1 (COX-1)): −9.1 % inhibition
- IC50 [1]: 160 nM

- IC50 [1]: 100 nM
Structure (SMILES): Cc1ccc(-n2nc(C(=O)NC(C)(C)C)cc2-c2cn(C)cn2)cn1 [Example 122, N-tert-Butyl-5-(1-methyl-1H-imidazol-4-yl)-1-(6-methyl-3-pyridyl)-1H-pyrazole-3-carboxamide]

Structure (SMILES): COCC(C)(C)NC(=O)c1cc(-c2ccccn2)n(-c2ccc(OC)nn2)n1 [Example 40, N-(2-Methoxy-1,1-dimethylethyl)-1-(6-methoxy-3-pyridazinyl)-5-(2-pyridyl)-1H-pyrazole-3-carboxamide]
- Inhibitory effect against COX-2 at 50 μm (% inhibition) (Cyclooxygenase-2 (COX-2)): 14.8 % inhibition
- Inhibitory effect against COX-1 at 50 μm (% inhibition) (Cyclooxygenase-1 (COX-1)): 72 % inhibition
- IC50 [1]: 65 nM

Structure (SMILES): Cc1ccc(-c2cc(C(=O)NC(C)(C)CO)nn2-c2cccnc2)nc1 [Example 152, N-(2-Hydroxy-1,1-dimethylethyl)-5-(5-methyl-2-pyridyl)-1-(3-pyridyl)-1H-pyrazole-3-carboxamide]
- Inhibitory effect against COX-1 at 50 μm (% inhibition) (Cyclooxygenase-1 (COX-1)): −8.7 % inhibition
- IC50 [1]: 110 nM

- IC50 [1]: 32 nM
Structure (SMILES): C#Cc1ccc(-c2cc(C(=O)NC(C)(C)CF)nn2-c2cccnc2)nc1 [Example 132, 5-(5-Ethynyl-2-pyridyl)-N-(2-fluoro-1,1-dimethylethyl)-1-(3-pyridyl)-1H-pyrazole-3-carboxamide]

Structure (SMILES): CC(=O)NCc1ccc(-c2cc(C(=O)NC(C)(C)C)nn2-c2cccnc2)nc1 [Example 138, N-tert-Butyl-5-[5-(acetylamino)methyl-2-pyridyl]-1-(3-pyridyl)-1H-pyrazole-3-carboxamide]
- Inhibitory effect against COX-1 at 50 μm (% inhibition) (Cyclooxygenase-1 (COX-1)): 0.7 % inhibition
- IC50 [1]: 160 nM

Structure (SMILES): CC(C)(CF)NC(=O)c1cc(-c2ccc(N)cn2)n(-c2cccnc2)n1 [Example 98, N-(2-Fluoro-1,1-dimethylethyl)-5-(5-amino-2-pyridyl)-1(3-pyridyl)-1H-pyrazole-3-carboxamide]
- Inhibitory effect against COX-1 at 50 μm (% inhibition) (Cyclooxygenase-1 (COX-1)): −20.4 % inhibition
- IC50 [1]: 43 nM

- IC50 [1]: 54 nM
Structure (SMILES): CC(C)(C)NC(=O)c1cc(-c2ccc(F)cn2)n(-c2cccnc2)n1 [Example 85, N-tert-Butyl-5-(5-fluoro-2-pyridyl)-1-(3-pyridyl)-1H-pyrazole-3-carboxamide]

- IC50 [1]: 20 nM
Structure (SMILES): COc1ccc(-n2nc(C(=O)N(C)C)cc2-c2ccn(C)c2)cn1 [Example 116, N,N-Dimethyl-1-(6-methoxy-3-pyridyl)-5-(1-methyl-1H-pyrrol-3-yl)-1H-pyrazole-3-carboxamide]

Structure (SMILES): CC(C)(C)NC(=O)c1cc(-c2ccc(N)cn2)n(-c2cccnc2)n1 [Example 71]
- Inhibitory effect against COX-1 at 50 μm (% inhibition) (Cyclooxygenase-1 (COX-1)): 7.9 % inhibition
- IC50 [1]: 23.1 nM
